Laboratory results published in PubChem BioAssay (NCI).
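Cultured in 96-well plates, cells were exposed to test compound for 48 hours across five concentrations. Here, GI50 denotes the concentration required for 50% inhibition of growth. TGI denotes the concentration required for complete inhibition of growth.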

Experiments:
Test in all cases: inhibition of tumour cell growth, NCI panel, 48 h
SW-620 colon = tested on: SW-620 colon
MALME-3M melanoma = tested on: MALME-3M melanoma
TK-10 renal = tested on: TK-10 renal
IGROV1 ovarian = tested on: IGROV1 ovarian
OVCAR-8 ovarian = tested on: OVCAR-8 ovarian
RPMI-8226 leukemia = tested on: RPMI-8226 leukemia
OVCAR-4 ovarian = tested on: OVCAR-4 ovarian
KM12 colon = tested on: KM12 colon
SK-MEL-5 melanoma = tested on: SK-MEL-5 melanoma

SMILES | TGI (SW-620 colon) | TGI (MALME-3M melanoma) | TGI (TK-10 renal) | TGI (IGROV1 ovarian) | TGI (OVCAR-8 ovarian) | TGI (RPMI-8226 leukemia) | TGI (OVCAR-4 ovarian) | TGI (KM12 colon) | TGI (SK-MEL-5 melanoma) | GI50 (SW-620 colon) | GI50 (MALME-3M melanoma) | GI50 (TK-10 renal) | GI50 (IGROV1 ovarian) | GI50 (OVCAR-8 ovarian) | GI50 (RPMI-8226 leukemia) | GI50 (OVCAR-4 ovarian) | GI50 (KM12 colon) | GI50 (SK-MEL-5 melanoma)
COc1ccc(-c2cc(-c3ccccc3)c(C#N)c(=O)[nH]2)cc1 | > 100 µM | > 100 µM | > 100 µM | > 100 µM | > 100 µM | > 100 µM | > 100 µM | > 100 µM | > 100 µM | – | – | – | – | – | – | – | – | –
NNC(=O)CC(=O)Nc1ccccc1F | > 100 µM | > 100 µM | – | > 100 µM | > 100 µM | > 100 µM | > 100 µM | > 100 µM | > 100 µM | – | – | – | – | – | – | – | – | –
CCOC(=O)c1c(-c2[nH]c(C(=O)OCc3ccccc3)c(C)c2C(=O)OCC)[nH]c(C(=O)OCc2ccccc2)c1C | > 100 µM | > 100 µM | > 100 µM | > 100 µM | > 100 µM | > 100 µM | – | – | > 100 µM | – | – | – | – | – | – | – | – | –
CC(=O)OCCC/C(=C\c1ccc2ccccc2c1)[N+](=O)[O-] | 3.27 µM | 4.9 µM | 3.4 µM | 3.98 µM | 5.09 µM | 3.72 µM | 3.39 µM | 3.18 µM | 3.29 µM | 1.44 µM | 1.91 µM | 1.58 µM | 1.89 µM | 2.06 µM | 1.55 µM | 1.76 µM | 1.59 µM | 1.72 µM
COc1cc2ccc(CC#N)cc2cc1OC | > 100 µM | > 100 µM | > 100 µM | – | > 100 µM | – | > 100 µM | > 100 µM | > 100 µM | – | – | – | – | – | – | – | – | –
COc1ccc2oc(-c3ccncc3)cc(=O)c2c1 | – | > 100 µM | – | > 100 µM | – | > 100 µM | > 100 µM | > 100 µM | – | – | – | – | – | – | – | – | – | –
CC(C)C(/C=C/c1ccccc1)=N\NC(=O)N/N=C(/C=C/c1ccccc1)C(C)C | > 100 µM | – | > 100 µM | > 100 µM | > 100 µM | > 100 µM | > 100 µM | > 100 µM | 53.7 µM | – | – | – | – | – | – | – | – | –
COc1cc2c(c3oc(-c4ccc5c(c4)OCO5)c(O)c(=O)c13)CCC(C)(C)O2 | > 100 µM | – | > 100 µM | > 100 µM | > 100 µM | > 100 µM | – | > 100 µM | > 100 µM | – | – | – | – | – | – | – | – | –
COC1=NN2C(OC)(c3ccccc3)c3c(-c4ccccc4)sc(-c4ccccc4)c3C2(c2ccccc2)S1 (stereo unspecified) | > 100 µM | > 100 µM | > 100 µM | > 100 µM | > 100 µM | – | – | > 100 µM | – | – | – | – | – | – | – | – | – | –
O=C1c2c(c3c4ccccc4n4c3c3c2c2ccccc2n3C/C=C\C4)C(=O)N1Cc1ccccc1 | > 100 µM | > 100 µM | > 100 µM | > 100 µM | > 100 µM | > 100 µM | – | > 100 µM | > 100 µM | – | – | – | – | – | – | – | – | –
CSC(=S)N(C)NC(=O)c1cccc(C(=O)NN(C)C(=S)SC)n1 | > 100 µM | – | – | 49.9 µM | > 100 µM | > 100 µM | 41 µM | > 100 µM | > 100 µM | – | – | – | – | – | – | – | – | –
CC1=C(C(=O)Nc2ccccc2C)C(c2ccc(N(C)C)cc2)C(C(=O)Nc2ccccc2C)=C(C)N1 | > 100 µM | > 100 µM | > 100 µM | > 100 µM | > 100 µM | > 100 µM | – | > 100 µM | > 100 µM | – | – | – | – | – | – | – | – | –
CC1(C)CCc2cc3c(cc2O1)OC(C)(C)C1c2c(ccc4c2CCC(C)(C)O4)OC31 (stereo unspecified) | > 100 µM | – | – | > 100 µM | > 100 µM | > 100 µM | > 100 µM | > 100 µM | > 100 µM | – | – | – | – | – | – | – | – | –
O=C1c2cnccc2Cc2cccc3c2N1c1ccccc1S3 | 97.9 µM | 62.4 µM | – | 98.9 µM | – | 88.1 µM | 68.4 µM | 66 µM | 39 µM | – | – | – | – | – | – | – | – | –
Cn1cc2ccccc2c1-c1nc(F)nc(Oc2ccc3c(c2)CC[C@@H]2C3CC[C@]3(C)C(O)CCC23)n1 (stereo partly specified) | 43.5 µM | 39.9 µM | 31.7 µM | 30.8 µM | 36 µM | – | 28.5 µM | – | 30.2 µM | – | – | – | – | – | – | – | – | –
CSc1nc2c(nc(N)n2C2OCC(O)C(O)C2O)c(=O)[nH]1 (stereo unspecified) | > 100 µM | > 100 µM | > 100 µM | > 100 µM | > 100 µM | – | > 100 µM | > 100 µM | > 100 µM | – | – | – | – | – | – | – | – | –
O=C1C2Cc3ccccc3CN2C(=O)N1CN1CCN(CN2C(=O)C3Cc4ccccc4CN3C2=O)CC1 (stereo unspecified) | > 100 µM | > 100 µM | > 100 µM | > 100 µM | > 100 µM | > 100 µM | – | > 100 µM | > 100 µM | – | – | – | – | – | – | – | – | –
Cc1cn(C2C=CC(=O)C(C)O2)c(=O)[nH]c1=O (stereo unspecified) | 28.8 µM | 25.9 µM | 28.5 µM | 34.4 µM | 35.5 µM | 47.9 µM | – | 30.1 µM | 28.1 µM | – | – | – | – | – | – | – | – | –
COc1ccc(CNc2nc3ccccc3nc2-c2cccs2)cc1OC | > 100 µM | > 100 µM | > 100 µM | – | > 100 µM | > 100 µM | – | – | – | – | – | – | – | – | – | – | – | –
O=C(N/C(=C\c1ccc([N+](=O)[O-])cc1)c1nc2[nH]c(=S)[nH]c(=O)c2[nH]1)c1ccccc1 | > 100 µM | > 100 µM | > 100 µM | > 100 µM | > 100 µM | – | > 100 µM | > 100 µM | > 100 µM | – | – | – | – | – | – | – | – | –
